Legend:
[1] = Inhibition of recombinant full length NS3/4A protease in Hepatitis C virus subtype 3a infected in human HuH7 cells using Ac-Asp-Glu-Asp (EDANS)-Glu-Glu-Abu-(COO) Ala-Ser-Lys (DABCYL)-NH2 as substrate by FRET assay; details: Huh-7
[2] = Inhibition of recombinant full length NS3/4A protease in Hepatitis C virus subtype 1a replicon infected in human HuH7 cells preincubated for 3 days followed by substrate addition and measured after 2 hrs by renilla luciferase reporter gene assay; type: cell-based; details: Huh-7
[3] = Inhibition of recombinant full length NS3/4A protease in Hepatitis C virus subtype 1b replicon infected in human HuH7 cells preincubated for 3 days followed by substrate addition and measured after 2 hrs by renilla luciferase reporter gene assay; type: cell-based; details: Huh-7
[4] = Inhibition of recombinant full length NS3/4A protease in Hepatitis C virus subtype 2a replicon infected in human HuH7 cells preincubated for 3 days followed by substrate addition and measured after 2 hrs by renilla luciferase reporter gene assay; type: cell-based; details: Huh-7
[5] = Inhibition of recombinant full length NS3/4A protease in Hepatitis C virus subtype 3a replicon infected in human HuH7 cells preincubated for 3 days followed by substrate addition and measured after 2 hrs by renilla luciferase reporter gene assay; type: cell-based; details: Huh-7
[6] = Inhibition of recombinant full length NS3/4A R155K mutant protease in Hepatitis C virus subtype 1a replicon infected in human HuH7 cells preincubated for 3 days followed by substrate addition and measured after 2 hrs by renilla luciferase reporter gene assay; type: cell-based; details: Huh-7
[7] = Inhibition of recombinant full length NS3/4A D168V mutant protease in Hepatitis C virus subtype 1b replicon infected in human HuH7 cells preincubated for 3 days followed by substrate addition and measured after 2 hrs by renilla luciferase reporter gene assay; type: cell-based; details: Huh-7
[8] = Metabolic stability in human liver microsomes assessed as half-life incubated for 5 to 45 mins in presence of NADPH by LC-MS analysis; type: ADME, Microsome; details: time 5-45 min
[9] = Drug concentration in rat plasma at 5 mg/kg, po measured upto 24 hrs; type: ADME, organism-based; details: read-out: Ct
[10] = Drug concentration in rat liver at 5 mg/kg, po measured upto 24 hrs; type: ADME, organism-based; details: read-out: Ct
[11] = Oral bioavailability in rat at 5 mg/kg; type: ADME, organism-based; details: in vivo
[12] = Half-life in dog at 3 mg/kg, po or 1 mg/kg, iv; type: ADME, organism-based, Canis lupus familiaris; details: in vivo
[13] = Half-life in rat at 5 mg/kg, po or 1 mg/kg, iv; type: ADME, organism-based; details: in vivo
[14] = Clearance in rat at 5 mg/kg, po or 1 mg/kg, iv; type: ADME, organism-based; details: in vivo
[15] = AUC in rat at 5 mg/kg, po or 1 mg/kg, iv; type: ADME, organism-based; parameters: dose 5 mg/kg; details: in vivo
[16] = Clearance in dog at 3 mg/kg, po or 1 mg/kg, iv; type: ADME, organism-based, Canis lupus familiaris; details: in vivo
[17] = Oral bioavailability in dog at 3 mg/kg; type: ADME, organism-based, Canis lupus familiaris; details: in vivo
[18] = AUC in dog at 3 mg/kg, po or 1 mg/kg, iv; type: ADME, organism-based, Canis lupus familiaris; parameters: dose 3 mg/kg; details: in vivo
[19] = Drug concentration in dog plasma at 3 mg/kg, po measured upto 24 hrs; type: ADME, organism-based, Canis lupus familiaris; details: read-out: Ct
[20] = Half-life in cynomolgus monkey at 3 mg/kg, po or 1 mg/kg, iv; type: ADME, organism-based, Macaca fascicularis; details: in vivo
[21] = Clearance in cynomolgus monkey at 3 mg/kg, po or 1 mg/kg, iv; type: ADME, organism-based, Macaca fascicularis; details: in vivo
[22] = Oral bioavailability in cynomolgus monkey at 3 mg/kg; type: ADME, organism-based, Macaca fascicularis; details: in vivo
[23] = AUC in cynomolgus monkey at 3 mg/kg, po or 1 mg/kg, iv; type: ADME, organism-based, Macaca fascicularis; parameters: dose 3 mg/kg; details: in vivo
Cytochrome P450 3A4 [24] = target: T1, Cytochrome P450 3A4 (Homo sapiens, UniProt P08684); assay: Inhibition of human CYP3A4 in human pooled liver microsomes at 0.002 to 40 uM in presence of midazolam as substrate preincubated in presence of NADPH followed by addition of substrate by LC-MS/MS analysis; type: ADME; details: TDE = time-dependent effect, dose 0.002-40 µM, time <=30 min
Cytochrome P450 3A4 [25] = target: T1, Cytochrome P450 3A4; assay: Inhibition of human CYP3A4 in human pooled liver microsomes at 0.002 to 40 uM in presence of testosterone as substrate preincubated in presence of NADPH followed by addition of substrate by LC-MS/MS analysis; type: ADME; details: TDE = time-dependent effect, dose 0.002-40 µM, time <=30 min
Cytochrome P450 3A4 [26] = target: T1, Cytochrome P450 3A4; assay: Inhibition of human CYP3A4 in human pooled liver microsomes in presence of testosterone as substrate preincubated for 0 mins in presence of NADPH followed by addition of substrate by LC-MS/MS analysis; type: ADME
Cytochrome P450 3A4 [27] = target: T1, Cytochrome P450 3A4; assay: Inhibition of human CYP3A4 in human pooled liver microsomes in presence of midazolam as substrate preincubated for 0 mins in presence of NADPH followed by addition of substrate by LC-MS/MS analysis; type: ADME
Cytochrome P450 3A4 [28] = target: T1, Cytochrome P450 3A4; assay: Inhibition of human CYP3A4 in human pooled liver microsomes in presence of testosterone as substrate preincubated for 30 mins in presence of NADPH followed by addition of substrate by LC-MS/MS analysis; type: ADME
Cytochrome P450 3A4 [29] = target: T1, Cytochrome P450 3A4; assay: Inhibition of human CYP3A4 in human pooled liver microsomes in presence of midazolam as substrate preincubated for 30 mins in presence of NADPH followed by addition of substrate by LC-MS/MS analysis; type: ADME
[30] = Toxicity in rat assessed as clinical effect measured upto 4 days; details: in vivo, 96 h, time <=4 day
[31] = Toxicity in rat assessed as histopathological changes measured upto 4 days; details: in vivo, 96 h, time <=4 day
[32] = Toxicity in rat assessed as effect on cardiovascular system by telemetry; details: in vivo
[33] = Toxicity in rabbit assessed as effect on cardiovascular system by telemetry; parameters: species or system Oryctolagus cuniculus; details: in vivo
Cytochrome P450 3A4 [34] = target: T1, Cytochrome P450 3A4; assay: […] of CYP3A4 in human liver microsome in presence of midazolam as substrate preincubated for upto 30 mins in presence of NADPH followed by addition of substrate by LC-MS/MS analysis; type: ADME; details: microsomes
CHO = assay: Genotoxicity in Chinese Hamster CHO cells assessed as non clastogenicity by micronucleus assay; type: toxicity, cell-based, Cricetulus griseus
[35] = Cytotoxicity against human Huh-7 cells assessed as reduction in cell viability; type: cell-based
[36] = Cytotoxicity against human MT2 cells assessed as reduction in cell viability; type: cell-based
[37] = Genotoxicity in Salmonella typhimurium by AMES test; type: toxicity; details: salmonella enterica subsp. enterica serovar typhimurium

T1 sequence (P08684 whole entry): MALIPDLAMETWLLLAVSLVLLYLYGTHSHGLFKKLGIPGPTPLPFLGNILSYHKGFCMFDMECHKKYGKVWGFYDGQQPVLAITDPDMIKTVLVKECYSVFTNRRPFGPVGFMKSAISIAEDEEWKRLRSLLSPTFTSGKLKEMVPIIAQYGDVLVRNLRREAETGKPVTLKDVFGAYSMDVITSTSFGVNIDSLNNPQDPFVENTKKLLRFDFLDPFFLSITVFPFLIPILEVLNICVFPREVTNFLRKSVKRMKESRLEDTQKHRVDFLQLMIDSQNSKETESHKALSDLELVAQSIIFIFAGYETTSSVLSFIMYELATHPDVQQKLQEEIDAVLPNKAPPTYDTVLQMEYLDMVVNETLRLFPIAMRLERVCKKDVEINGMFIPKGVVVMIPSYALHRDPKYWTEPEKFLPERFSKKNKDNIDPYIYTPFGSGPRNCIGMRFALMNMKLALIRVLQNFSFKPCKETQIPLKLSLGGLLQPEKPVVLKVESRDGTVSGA

## [2H]C([2H])([2H])Oc1cc2ccnc(O[C@@H]3C[C@H]4C(=O)N[C@]5(C(=O)NS(=O)(=O)C6(C)CC6)C[C@H]5/C=C\CC[C@@H](C)C[C@@H](CC)[C@H](NC(=O)OC(C)(C)C(F)(F)F)C(=O)N4C3)c2cc1F
[1]
  IC50: 4.8 nM
[2]
  EC50: 2.3 nM
[3]
  EC50: 0.7 nM
[4]
  EC50: 1 nM
[5]
  EC50: 12 nM
[6]
  EC50: 8 nM
[7]
  EC50: 5.8 nM
[8]
  half-life: 0.55 h
[9]
  concentration at 24 h: 3.85 µM
[10]
  concentration at 24 h: 4.16 µM
[11]
  bioavailability: 57%
[12]
  half-life: 8.7 h
[13]
  half-life: 13.4 h
[14]
  clearance: 0.18 mL/min/kg
[15]
  AUC: 310 µM·h
[16]
  clearance: 1.1 mL/min/kg
[17]
  bioavailability: 71%
[18]
  AUC: 39.8 µM·h
[19]
  concentration at 24 h: 0.163 µM
[20]
  half-life: 1.2 h
[21]
  clearance: 12.1 mL/min/kg
[22]
  bioavailability: 23.9%
[23]
  AUC: 0.19 µM·h
Cytochrome P450 3A4 [24]
  inhibition (INH): Tde
Cytochrome P450 3A4 [25]
  inhibition (INH): Tde
Cytochrome P450 3A4 [26]
  IC50: > 40000 nM
Cytochrome P450 3A4 [27]
  IC50: > 40000 nM
Cytochrome P450 3A4 [28]
  IC50: > 33000 nM
Cytochrome P450 3A4 [29]
  IC50: 16400 nM
[30]
  Activity: Non-Toxic
[31]
  Activity: Non-Toxic
[32]
  Activity: Non-Toxic
[33]
  Activity: Non-Toxic
Cytochrome P450 3A4 [34]
  Activity: Not Active
CHO
  Activity: Non-Toxic
[35]
  CC50: 25000 nM
[36]
  CC50: 34000 nM
[37]
  Activity: Non-Toxic
